Results: US4220645A, “Chromone derivatives” (Thea (Therapeutique et Applications) SA, priority 1977, dated 1980)
Counter-ions that a name gives are not always drawn.

Tests used:
[1] = system: rhythm disorders induced by aconitine; experiment: Anti-arrhythmic activity in the guinea-pig (aconitine-induced arrhythmia); assay type: in vivo; details: for Average time for arrhythmia to appear, PES (polymorphic extrasystoles) / Average time for arrhythmia to appear, VT (ventricular tachycardia) / Average time for arrhythmia to appear, MTV (multifocal ventricular tachycardia) / Average time for arrhythmia to appear, VTB (ventricular tachycardia bursts): 6 guinea pigs; for Average time for arrhythmia to appear, PES (polymorphic extrasystoles): controls 27 ± 2; for Average time for arrhythmia to appear, VT (ventricular tachycardia): controls 30 ± 2; for Average time for arrhythmia to appear, MTV (multifocal ventricular tachycardia): controls 41 ± 2; for Average time for arrhythmia to appear, VTB (ventricular tachycardia bursts): controls 63 ± 4; for Delay of rhythm disorders induced by aconitine: I.V., guinea-pig, compared with amiodarone
Method: Anti-arrhythmic activity in the guinea-pig
Reference: Experimental evaluation of anti-arrhythmic drugs in the guinea-pig. GUIDICELLI, WITCHITZ, LARNO, BOISSIER, Biomedecine, 1973, 19, 308-313.
Male and female guinea-pigs were used, weighing from 600 to 800 g and anesthetised with urethane (1.25 g/kg/I.P.), tracheotomised and kept under artificial respiration. The electrocardiogram (D2) was recorded.
Arrhythmia was produced by perfusion at the rate of 0.5 ml/min of an aqueous solution of aconitine nitrate (0.15 mg/ml) in the jugular vein. Measurements were made of the time before the following rhythm disturbances appeared:
Polymorphic extrasystoles (PES),
Ventricular tachycardia (VT),
Multifocal ventricular tachycardia (MVT),
Ventricular tachycardia bursts (VTB),
that is a sequence of ventricular complexes of fixed frequency but with regular increasing and decreasing amplitude.
The following substances were used:
Amiodarone hydrochloride for comparison.
The substances were intravenously injected immediately before perfusion with aconitine had started.

spontaneous heart rate = experiment: Bradycardiac activity on the conscious dog; assay type: in vivo, dog (mongrel); details: 4 mg/kg I.V.; for Average heart beat after substance injected: 9 dogs, before injection 132 ± 9, (S) significant to p = 0,05
Method: Bradycardiac activity on the conscious dog
The dogs used were male and female mongrels weighing from 15 to 20 kg. Their bypass electrocardiograms (D2) were recorded and their heart rate (FC) was measured with a cardiotachometer.
The animals were not used to tests and consequently their heart rate was relatively high, 130 beats per minute on average.
3 control measurements of the heart rate were made during the hour before intravenous injection of the substance under study, and 3 further measurements were made 5 minutes, 20 minutes and 35 minutes after administration.

[2] = system: tachycardia produced by isoprenaline stimulation of the sympathicoβ receptors of the heart; experiment: Sympathico-inhibiting activity in the conscious dog (isoprenaline tachycardia); assay type: in vivo, dog (mongrel); details: for Effect of isoprenaline after substance injected: 4 mg/kg I.V., 6 dogs, before injection 114 ± 9 (controls), (S) significant to P = 0,05
Method: Sympathico-inhibiting activity in the conscious dog
The dogs used were male and female mongrels weighing from 15 to 20 kg. The animals were not anaesthetised. Their electrocardiograms (D2) and heart rates were measured.
Short bouts of tachycardia, approx. 1 minute long, were produced by intravenously injecting a solution of isoprenaline in doses of 0.25 Y/kg. The injections were repeated every 15 minutes until the increase in heart rate had been reproduced in a satisfactory manner.
Next, the substance under study was intravenously injected and 3 additional measurements of the isoprenaline tachycardia were made 5 minutes, 20 minutes and 35 minutes after the product under study had been administered.

[3] = Acute toxicity in the mouse; assay type: in vivo; details: female Swiss mice
Method: Acute toxicity in the mouse
The acute toxicity of compound No. 6 administered intravenously (I.V.) and orally (P.O.) was determined in female mice of the Swiss strain weighing from 25 to 27 g.
Compound No. 6 was administered in aqueous solution in a concentration of 0.4% intravenously and in a concentration of 1% and 4% orally.

Question: Which results are given for `CCCCc1oc2ccccc2c1C(=O)c1cc(I)c(OCCN(CC)CC)c(I)c1` [Amiodarone (hydrochloride), Amiodarone hydrochloride, reference compound]?
Answer: Average time for arrhythmia to appear, PES (polymorphic extrasystoles) ([1]; 4 mg/kg I.V.): 32 ± 3 s; Average time for arrhythmia to appear, VT (ventricular tachycardia) ([1]; 4 mg/kg I.V.): 44 ± 6 s; Average time for arrhythmia to appear, MTV (multifocal ventricular tachycardia) ([1]; 4 mg/kg I.V.): 59 ± 5 s; Average time for arrhythmia to appear, VTB (ventricular tachycardia bursts) ([1]; 4 mg/kg I.V.): 94 ± 8 s

Question: Which results are given for `CCCCN(CCCC)CCCOc1c(C)cc(C(=O)c2cc(=O)c3ccccc3o2)cc1C` [Compound No. 1, 2-[4-(3-N,N-dibutylaminopropoxy) 3,5-dimethylbenzoyl] chromone hydrochloride]?
Answer: Average time for arrhythmia to appear, PES (polymorphic extrasystoles) ([1]; 2 mg/kg I.V.): 63 ± 4 s; Average time for arrhythmia to appear, VT (ventricular tachycardia) ([1]; 2 mg/kg I.V.): 79 ± 9 s; Average time for arrhythmia to appear, MTV (multifocal ventricular tachycardia) ([1]; 2 mg/kg I.V.): 94 ± 10 s; Average time for arrhythmia to appear, VTB (ventricular tachycardia bursts) ([1]; 2 mg/kg I.V.): 139 ± 11 s; Delay of rhythm disorders induced by aconitine [1]: delay rhythm disorders induced by aconitine to a greater extent than the conventional reference compound, amiodarone; Effect on spontaneous heart rate (spontaneous heart rate; conscious dog): significantly lowers the spontaneous heart rate; Average heart beat after substance injected (spontaneous heart rate; 5 min, spread ±10): 114 beats/min; Average heart beat after substance injected (spontaneous heart rate; 20 min, spread ±8): 109 beats/min; Average heart beat after substance injected (spontaneous heart rate; 35 min, spread ±8): 107 beats/min; Effect of isoprenaline after substance injected ([2]; 5 min, spread ±12): 68 beats per minute; Effect of isoprenaline after substance injected ([2]; 20 min, spread ±10): 89 beats per minute; Effect of isoprenaline after substance injected ([2]; 35 min, spread ±10): 97 beats per minute; Sympathico-inhibiting activity ([2]; isoprenaline tachycardia, conscious dog): can moderate tachycardia produced by isoprenaline stimulation

Question: What does the source list for `CCCCN(CCCC)CCCOc1c(C)cc(C(=O)c2oc3ccccc3c(=O)c2C)cc1C` [Compound No. 6, 2-[4-(3-N,N-dibutylaminopropoxy) 3,5-dimethylbenzoyl] 3-methyl chromone hydrochloride]?
Answer: Lethal dose ([3]; I.V., aqueous solution 0.4%): ~30 mg/kg; Lethal dose ([3]; P.O., aqueous solution 1% and 4%): ~1200 mg/kg

Question: With `CCCCN(CCCC)CCOc1c(C)cc(C(=O)c2cc(=O)c3ccccc3o2)cc1C` [Compound No. 7, 2-[4-(2-N,N-dibutylaminoethoxy) 3,5-dimethylbenzoyl] chromone hydrochloride] as the molecule, how does the “Average time for arrhythmia to appear, PES (polymorphic extrasystoles)” value ([1]; 4 mg/kg I.V.) read?
Answer: 36 ± 4 s

Question: What about the “Average time for arrhythmia to appear, VT (ventricular tachycardia)” value ([1]; 4 mg/kg I.V.) of the same molecule?
Answer: 55 ± 8 s

Question: What about the “Average time for arrhythmia to appear, MTV (multifocal ventricular tachycardia)” value ([1]; 4 mg/kg I.V.) of the same molecule?
Answer: 77 ± 9 s

Question: And the “Average time for arrhythmia to appear, VTB (ventricular tachycardia bursts)” value ([1]; 4 mg/kg I.V.)?
Answer: 145 ± 10 s

Question: What about the “Delay of rhythm disorders induced by aconitine” value [1] of the same molecule?
Answer: delay rhythm disorders induced by aconitine to a greater extent than the conventional reference compound, amiodarone
